Data taken from patent US6737383B1, “Herbicidal oxadiazolidines” (priority 1999, dated 2004).

Columns and labels:
[1] = system: winter wheat; test: Test E winter wheat; type: in vivo, Triticum aestivum; settings: Preemergence
[2] = system: rape; test: Test B pre/postemergence rape; type: in vivo, Brassica napus
Method in brief: (§1)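 Herbicidal effect was estimated by eye on a ten-point control scale after plants spent twelve to sixteen days in a greenhouse following soil or foliar treatment. Foliar sprays targeted plants at one to four leaves; all doses were formulated in a non-phytotoxic solvent with surfactant.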

[3] = system: wild oat; test: Test E wild oat; type: in vivo, Avena fatua; settings: Preemergence
[4] = system: winter wheat; test: Test E winter wheat; type: in vivo, Triticum aestivum; settings: Postemergence, 0 to 100 scale
Method in brief: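 Each compound, carried in a non-phytotoxic solvent blend including surfactant, was applied (postemergence: over the top of young plants at 1- to 4-leaf stage). Plants stayed in the greenhouse about 21 to 28 days before visual comparison with untreated controls.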

[5] = system: blackgrass; test: Test E blackgrass; type: in vivo, Alopecurus myosuroides; settings: Preemergence
[6] = system: winter barley; test: Test E winter barley; type: in vivo, Hordeum vulgare; settings: Preemergence
[7] = system: green foxtail; test: Test E green foxtail; type: in vivo, Setaria viridis; settings: Preemergence
[8] = system: soybean; test: Test B pre/postemergence soybean; type: in vivo, Glycine max
Method in brief: as §1

[9] = system: smallflower flatsedge; test: Test B flood test smallflower flatsedge; type: in vivo, Cyperus difformis
Method in brief: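 Read-out is a visual response score from 0 (no effect) to 10 (complete control), assigned by comparison with untreated controls. Treatment was applied at the 2-leaf stage, and plants stayed in the greenhouse for twelve to sixteen days before scoring.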

[10] = system: Italian ryegrass; test: Test E Italian ryegrass; type: in vivo, Lolium multiflorum; settings: Preemergence
[11] = system: corn; test: Test B pre/postemergence corn; type: in vivo, Zea mays
Method in brief: as §1

[12] = Rate 31 g/ha, 0 to 100 scale, 0 no effect, 100 complete control
[13] = Rate 62 g/ha, 0 to 100 scale, 0 no effect, 100 complete control
[14] = Rate 125 g/ha, 0 to 100 scale (0 no effect, 100 complete control)
[15] = Preemergence, Rate 62 g/ha, scale of 0 to 10 where 0 is no effect and 10 is complete control
[16] = Preemergence, Rate 250 g/ha, scale of 0 to 10 where 0 is no effect and 10 is complete control
[17] = Preemergence, Rate 500 g/ha, scale of 0 to 10 where 0 is no effect and 10 is complete control
[18] = Rate 62 g/ha, Postemergence, scale of 0 to 10 where 0 is no effect and 10 is complete control
[19] = Rate 125 g/ha, Preemergence, scale of 0 to 10 where 0 is no effect and 10 is complete control
[20] = Rate 500 g/ha, Postemergence, scale 0 to 10, 0 no effect, 10 complete control

[2H]C([2H])([2H])n1c(=O)on(C(=O)N(c2ccc(F)cc2)C(C)C)c1=O [Compound 245]
Plant response rating, Wheat (winter) [1, 12]: 20 | Plant response rating, Wheat (winter) [1, 13]: 20 | Plant response rating, Wheat (winter) [1, 14]: 50 | Rape plant response rating [2, 15]: 3 | Rape plant response rating [2, 16]: 10 | Plant response rating, Rape [2, 17]: 10 | Rape plant response rating [2, 18]: 0 | Rape plant response rating [2, 19]: 4 | Plant response rating (0 to 10; 0 is no effect, 10 is complete control), Rape ([2]; Rate 250 g/ha, Postemergence): 2 | Rape plant response rating [2, 20]: 5 | Plant response rating, Wild oat [3, 12]: 30 | Plant response rating, Wild oat [3, 13]: 40 | Plant response rating, Wild oat [3, 14]: 30 | Plant response rating, Wheat (winter) ([4]; Rate 31 g/ha, 0 no effect, 100 complete control): 0 | Plant response rating, Wheat (winter) ([4]; Rate 62 g/ha): 10 | Plant response rating, Wheat (winter) ([4]; Rate 125 g/ha, 0 is no effect, 100 is complete control): 0 | Plant response rating, Blackgrass [5, 12]: 60 | Plant response rating, Blackgrass [5, 13]: 60 | Plant response rating, Blackgrass [5, 14]: 50 | Plant response rating, Barley (winter) [6, 12]: 40 | Plant response rating, Barley (winter) [6, 13]: 50 | Plant response rating, Barley (winter) [6, 14]: 70 | Plant response rating, Green foxtail [7, 12]: 60 | Plant response rating, Green foxtail [7, 13]: 100 | Plant response rating, Green foxtail [7, 14]: 100 | Soybean plant response rating [8, 15]: 0 | Soybean plant response rating [8, 16]: 2 | Plant response rating, Soybean [8, 17]: 8 | Soybean plant response rating [8, 18]: 2 | Soybean plant response rating [8, 19]: 2 | Soybean plant response rating [8, 20]: 5 | S. Flatsedge plant response rating ([9]; Rate 62 g/ha, headed Pre-emergence (flood test species), scale 0 to 10 (0 no effect, 10 complete control)): 0 | S. Flatsedge plant response rating ([9]; Rate 125 g/ha, Pre-emergence, flood test species, scale 0 to 10 where 0 is no effect and 10 is complete control): 0 | S. Flatsedge plant response rating ([9]; Rate 250 g/ha, Pre-emergence, flood-test species, scale 0 to 10, 0 is no effect, 10 is complete control): 0 | S. Flatsedge plant response rating ([9]; Rate 500 g/ha, Pre-emergence, flood test species, scale 0 to 10 (0 no effect, 10 complete control)): 0 | Plant response rating, I. Ryegrass [10, 12]: 20 | Plant response rating, I. Ryegrass [10, 13]: 40 | Plant response rating, I. Ryegrass [10, 14]: 60 | Corn plant response rating [11, 15]: 3 | Corn plant response rating [11, 16]: 7 | Plant response rating, Corn [11, 17]: 8 | Corn plant response rating [11, 18]: 0 | Corn plant response rating ([11]; Rate 125 g/ha, Postemergence, scale 0 to 10): 4 | Corn plant response rating [11, 19]: 5 | Plant response rating (0 to 10; 0 is no effect, 10 is complete control), Corn ([11]; Rate 250 g/ha, Postemergence): 5 | Corn plant response rating [11, 20]: 7
